Legend:
Assay type in all cases: in vivo
[1] = test system: Diabrotica balteata (Corn Root Worm); assay: Example B1: Activity against Diabrotica balteata (corn root worm), sprayed maize sprouts; settings: 96 h, application rate 200 ppm, L2 larvae on sprayed maize sprouts, 4 days after infestation, read-out: effect in at least one of the two categories (mortality or growth inhibition)
Procedure: Example B1: Activity Against Diabrotica balteata (Corn Root Worm)
Maize sprouts placed onto an agar layer in 24-well microtiter plates were treated with aqueous test solutions prepared from 10′000 ppm DMSO stock solutions by spraying. After drying, the plates were infested with L2 larvae (6 to 10 per well). The samples were assessed for mortality and growth inhibition in comparison to untreated samples 4 days after infestation.

[2] = test system: Plutella xylostella (Diamond Back Moth); assay: Example B3: Activity against Plutella xylostella (diamond back moth), artificial diet; settings: 192 h, application rate 200 ppm, eggs on artificial diet, 8 days after infestation, read-out: effect in at least one of the two categories (mortality or growth inhibition)
Procedure: Example B3: Activity Against Plutella xylostella (Diamond Back Moth)
24-well microtiter plates with artificial diet were treated with aqueous test solutions prepared from 10′000 ppm DMSO stock solutions by pipetting. After drying, Plutella eggs were pipetted through a plastic stencil onto a gel blotting paper and the plate was closed with it. The samples were assessed for mortality and growth inhibition in comparison to untreated samples 8 days after infestation. The following compounds gave an effect of at least 80% in at least one of the two categories (mortality or growth inhibition) at an application rate of 200 ppm: P2, P4, P5, P6, P8, P9, P10, P11, P12, P14, P15, P16, P17, P18, P19, P20, P21, P22, P23, P24, P25, P26, P27, P28, P29, P30, P31, P32, P33, P34, P35, P36, P38, P39, P40, P42, P45, P46, P47, P49, P50, P51, P52.

[3] = test system: Spodoptera littoralis (Egyptian Cotton Leaf Worm); assay: Example B6: Activity against Spodoptera littoralis (Egyptian cotton leaf worm); settings: foliar, 72 h, application rate 200 ppm, L1 larvae on sprayed cotton leaf discs, 3 days after infestation, read-out: control (mortality, anti-feeding effect or growth inhibition)
Procedure: Example B6: Activity Against Spodoptera littoralis (Egyptian Cotton Leaf Worm)
Cotton leaf discs were placed onto agar in 24-well microtiter plates and sprayed with aqueous test solutions prepared from 10′000 ppm DMSO stock solutions. After drying the leaf discs were infested with five L1 larvae. The samples were assessed for mortality, anti-feeding effect, and growth inhibition in comparison to untreated samples 3 days after infestation. Control of Spodoptera littoralis by a test sample is given when at least one of the categories mortality, anti-feedant effect, and growth inhibition is higher than the untreated sample.

[4] = test system: Euschistus heros (Neotropical Brown Stink Bug); assay: Example B2: Activity against Euschistus heros (neotropical brown stink bug), sprayed soybean leaves; settings: 120 h, application rate 200 ppm, N2 nymphs on sprayed soybean leaves, 5 days after infestation, read-out: effect in at least one of the two categories (mortality or growth inhibition)
Procedure: Example B2: Activity Against Euschistus heros (Neotropical Brown Stink Bug)
Soybean leaves on agar in 24-well microtiter plates were sprayed with aqueous test solutions prepared from 10′000 ppm DMSO stock solutions. After drying the leaves were infested with N2 nymphs. The samples were assessed for mortality and growth inhibition in comparison to untreated samples 5 days after infestation.

CCS(=O)(=O)c1cc(C2CC2)cnc1-c1cc2ccn(CC(F)(F)C(F)(F)F)c2cn1 [Compound P51, 5-(5-cyclopropyl-3-ethylsulfonyl-2-pyridyl)-1-(2,2,3,3,3-pentafluoropropyl) pyrrolo[2,3-c]pyridine]
≥ 80%: percent effect (mortality or growth inhibition) at 200 ppm [1] | percent effect (mortality or growth inhibition) at 200 ppm [2] | percent control (mortality, anti-feedant effect or growth inhibition) at 200 ppm [3]

CCS(=O)(=O)c1cc(-n2ccc(C(F)(F)F)n2)cnc1-c1cc2cnn(CC(F)(F)C(F)(F)F)c2cn1 [Compound P45, 5-[3-ethylsulfonyl-5-[3-(trifluoromethyl)pyrazol-1-yl]-2-pyridyl]-1-(2,2,3,3,3-pentafluoropropyl) pyrazolo[3,4-c]pyridine]
≥ 80%: percent effect (mortality or growth inhibition) at 200 ppm [1] | percent effect (mortality or growth inhibition) at 200 ppm [4] | percent effect (mortality or growth inhibition) at 200 ppm [2] | percent control (mortality, anti-feedant effect or growth inhibition) at 200 ppm [3]

CCSc1cc(C2CC2)cnc1-c1cc2ncn(CC(F)(F)C(F)(F)F)c2cn1 [Compound P9, 6-(5-cyclopropyl-3-ethylsulfanyl-2-pyridyl)-3-(2,2,3,3,3-pentafluoropropyl) imidazo[4,5-c]pyridine]
≥ 80%: percent effect (mortality or growth inhibition) at 200 ppm [1] | percent effect (mortality or growth inhibition) at 200 ppm [2]

CCSc1cc(Oc2ccccn2)cnc1-c1cc2cnn(CC(F)(F)C(F)(F)F)c2cn1 [Compound P20, 5-[3-ethylsulfanyl-5-(2-pyridyloxy)-2-pyridyl]-1-(2,2,3,3,3-pentafluoropropyl) pyrazolo [3,4-c]pyridine]
≥ 80%: percent effect (mortality or growth inhibition) at 200 ppm [1] | percent effect (mortality or growth inhibition) at 200 ppm [4] | percent effect (mortality or growth inhibition) at 200 ppm [2] | percent control (mortality, anti-feedant effect or growth inhibition) at 200 ppm [3]

CCSc1cc(-n2ccc(C(F)(F)F)n2)cnc1-c1cc2cnn(CC(F)(F)C(F)(F)F)c2cn1 [Compound P50, 5-[3-ethylsulfanyl-5-[3-(trifluoromethyl)pyrazol-1-yl]-2-pyridyl]-1-(2,2,3,3,3-pentafluoropropyl) pyrazolo[3,4-c]pyridine]
≥ 80%: percent effect (mortality or growth inhibition) at 200 ppm [1] | percent effect (mortality or growth inhibition) at 200 ppm [2] | percent control (mortality, anti-feedant effect or growth inhibition) at 200 ppm [3]

CCSc1cc(C2CC2)c[n+]([O-])c1-c1cc2ncn(CC(F)(F)C(F)(F)F)c2cn1 [PN4, 6-(5-cyclopropyl-3-ethylsulfanyl-1-oxido-pyridin-1-ium-2-yl)-3-(2,2,3,3,3-pentafluoropropyl)imidazo[4,5-c]pyridine]
≥ 80%: percent effect (mortality or growth inhibition) at 200 ppm [4]

CCSc1cc(C(F)(F)F)cnc1-c1cc2cnn(CC(F)(F)C(F)(F)F)c2cn1 [Compound P30, 5-[3-ethylsulfanyl-5-(trifluoromethyl)-2-pyridyl]-1-(2,2,3,3,3-pentafluoropropyl) pyrazolo[3,4-c] pyridine]
≥ 80%: percent effect (mortality or growth inhibition) at 200 ppm [1] | percent effect (mortality or growth inhibition) at 200 ppm [4] | percent effect (mortality or growth inhibition) at 200 ppm [2] | percent control (mortality, anti-feedant effect or growth inhibition) at 200 ppm [3]

CCS(=O)(=O)c1cc(C(C)(C)C#N)cnc1-c1cc2ccn(CC(F)(F)C(F)(F)F)c2cn1 [Compound P19, 2-[5-ethylsulfonyl-6-[1-(2,2,3,3,3-pentafluoropropyl)pyrrolo[2,3-c]pyridin-5-yl]-3-pyridyl]-2-methyl-propanenitrile]
≥ 80%: percent effect (mortality or growth inhibition) at 200 ppm [1] | percent effect (mortality or growth inhibition) at 200 ppm [4] | percent effect (mortality or growth inhibition) at 200 ppm [2] | percent control (mortality, anti-feedant effect or growth inhibition) at 200 ppm [3]

CCSc1cc(C2(C#N)CC2)cnc1-c1cc2ccn(CC(F)(F)C(F)(F)F)c2cn1 [Compound P37, 1-[5-ethylsulfanyl-6-[1-(2,2,3,3,3-pentafluoropropyl)pyrrolo[2,3-c]pyridin-5-yl]-3-pyridyl] cyclopropane-carbonitrile]
≥ 80%: percent effect (mortality or growth inhibition) at 200 ppm [1] | percent control (mortality, anti-feedant effect or growth inhibition) at 200 ppm [3]

CCSc1cc(C(C)(C)C#N)cnc1-c1cc2ccn(CC(F)(F)C(F)(F)F)c2cn1 [Compound P29, 2-[5-ethylsulfanyl-6-[1-(2,2,3,3,3-pentafluoropropyl)pyrrolo[2,3-c]pyridin-5-yl]-3-pyridyl]-2-methyl-propanenitrile]
≥ 80%: percent effect (mortality or growth inhibition) at 200 ppm [1] | percent effect (mortality or growth inhibition) at 200 ppm [2]

CCS(=O)(=O)c1cc(C2CC2)cnc1-c1cc2cnn(CC(F)(F)C(F)(F)F)c2cn1 [Compound P28, 5-(5-cyclopropyl-3-ethylsulfonyl-2-pyridyl)-1-(2,2,3,3,3-pentafluoropropyl) pyrazolo[3,4-c] pyridine]
≥ 80%: percent effect (mortality or growth inhibition) at 200 ppm [1] | percent effect (mortality or growth inhibition) at 200 ppm [4] | percent effect (mortality or growth inhibition) at 200 ppm [2] | percent control (mortality, anti-feedant effect or growth inhibition) at 200 ppm [3]

CCSc1cc(-n2ccc(Cl)n2)cnc1-c1cc2cnn(CC(F)(F)C(F)(F)F)c2cn1 [Compound P39, 5-[5-(3-chloropyrazol-1-yl)-3-ethylsulfanyl-2-pyridyl]-1-(2,2,3,3,3-pentafluoropropyl) pyrazolo[3,4-c]pyridine]
≥ 80%: percent effect (mortality or growth inhibition) at 200 ppm [1] | percent effect (mortality or growth inhibition) at 200 ppm [2] | percent control (mortality, anti-feedant effect or growth inhibition) at 200 ppm [3]

CCS(=O)(=O)c1ccc(Cl)nc1-c1cc2cnn(CC(F)(F)C(F)(F)F)c2cn1 [Compound P49, 5-(6-chloro-3-ethylsulfonyl-2-pyridyl)-1-(2,2,3,3,3-pentafluoropropyl) pyrazolo[3,4-c]pyridine]
≥ 80%: percent effect (mortality or growth inhibition) at 200 ppm [1] | percent effect (mortality or growth inhibition) at 200 ppm [4] | percent effect (mortality or growth inhibition) at 200 ppm [2] | percent control (mortality, anti-feedant effect or growth inhibition) at 200 ppm [3]

CCS(=O)(=O)c1ccc(-n2cncn2)nc1-c1cc2ccn(CC(F)(F)C(F)(F)F)c2cn1 [Compound P35, 5-[3-ethylsulfonyl-6-(1,2,4-triazol-1-yl)-2-pyridyl]-1-(2,2,3,3,3-pentafluoropropyl) pyrrolo[2,3-c]pyridine]
≥ 80%: percent effect (mortality or growth inhibition) at 200 ppm [1] | percent effect (mortality or growth inhibition) at 200 ppm [2] | percent control (mortality, anti-feedant effect or growth inhibition) at 200 ppm [3]

CCS(=O)(=O)c1cc(NC)cnc1-c1cc2ccn(CC(F)(F)C(F)(F)F)c2cn1 [Compound P18, 5-ethylsulfonyl-N-methyl-6-[1-(2,2,3,3,3-pentafluoropropyl)pyrrolo[2,3-c]pyridin-5-yl]pyridin-3-amine]
≥ 80%: percent effect (mortality or growth inhibition) at 200 ppm [1] | percent effect (mortality or growth inhibition) at 200 ppm [4] | percent effect (mortality or growth inhibition) at 200 ppm [2] | percent control (mortality, anti-feedant effect or growth inhibition) at 200 ppm [3]

CCSc1cc(C2(C#N)CC2)c[n+]([O-])c1-c1cc2ncn(CC(F)(F)C(F)(F)F)c2cn1 [PN8, 1-[5-ethylsulfanyl-1-oxido-6-[3-(2,2,3,3,3-pentafluoropropyl)imidazo[4,5-c]pyridin-6-yl]pyridin-1-ium-3-yl]cyclopropane-carbonitrile]
≥ 80%: percent effect (mortality or growth inhibition) at 200 ppm [4]

CCS(=O)(=O)c1ccc(Cl)nc1-c1cc2ccn(CC(F)(F)C(F)(F)F)c2cn1 [Compound P36, 5-(6-chloro-3-ethylsulfonyl-2-pyridyl)-1-(2,2,3,3,3-pentafluoropropyl) pyrrolo[2,3-c]pyridine]
≥ 80%: percent effect (mortality or growth inhibition) at 200 ppm [1] | percent effect (mortality or growth inhibition) at 200 ppm [2] | percent control (mortality, anti-feedant effect or growth inhibition) at 200 ppm [3]
